Measurements: patent publication USRE36831E, “Iron-pyridone complexes for anemia” (priority 1983, dated 2000)

Test system: haemoglobin
Experiment: Ability of complexes to bind to haemoglobin (elution profile of 59Fe label on PD-10 column)
Type: binding
Settings: 59Fe-labelled 3:1 neutral complex, 1 mM
Method: The ability of the complexes of 1-acetyl-3-hydroxypyrid-2-one and 1-ethyl-3-hydroxy-6-hydroxymethylpyrid-4-one to bind to haemoglobin is investigated by studying the elution profile of a ^59 Fe label when a mixture of haemoglobin and the ^59 Fe-labelled 3:1 (pyridone:iron) neutral complex (at 1 mM concentration) is applied to a PD-10 column (Sephadex […] gel permeation column - Pharmacia).

In the case of `CCn1cc([O-])c(=O)cc1CO.CCn1cc([O-])c(=O)cc1CO.CCn1cc([O-])c(=O)cc1CO.[Fe+3]` [Fe^III complex of 1-ethyl-3-hydroxy-6-hydroxymethylpyrid-4-one], the haemoglobin binding ability is reported as “no detectable haemoglobin binding ability”.
With `CC(=O)n1cccc([O-])c1=O.CC(=O)n1cccc([O-])c1=O.CC(=O)n1cccc([O-])c1=O.[Fe+3]` [Fe^III complex of 1-acetyl-3-hydroxypyrid-2-one] the haemoglobin binding ability was “no detectable haemoglobin binding ability”.

Test system: apotransferrin
Experiment: Ability of iron complexes to donate iron to apotransferrin
Type: biochemical
Settings: apotransferrin 10^-4 M, complex 10^-4 M, tris 50 mM pH 7.4, 37° C., 10 minutes
Method: Apotransferrin (10^-4 M) and the iron complex of 1-ethyl-3-hydroxy-6-hydroxymethylpyrid-4-one (10^-4 M; prepared as described in Example 1) were incubated together in tris hydrochloride (50 mM, buffered to pH 7.4) at 37° C. for 10 minutes when a 1 ml aliquot was removed from the medium and added to a PD10 column. 0.5 ml fractions were collected directly into scintillation vials for counting. […] A similar value was obtained with the complex of 3-hydroxy-1-(2'-hydroxyethyl)-2-methylpyrid-4-one but with the complex of 1-acetyl-3-hydroxypyrid-2-one over 80% of the iron was removed within 10 minutes.

With `CCn1cc([O-])c(=O)cc1CO.CCn1cc([O-])c(=O)cc1CO.CCn1cc([O-])c(=O)cc1CO.[Fe+3]` [Fe^III complex of 1-ethyl-3-hydroxy-6-hydroxymethylpyrid-4-one] the “iron removed from the iron complex” value was “over 45%”.
For `CC(=O)n1cccc([O-])c1=O.CC(=O)n1cccc([O-])c1=O.CC(=O)n1cccc([O-])c1=O.[Fe+3]` [Fe^III complex of 1-acetyl-3-hydroxypyrid-2-one], the “iron removed from the iron complex” value was “over 80%”.

Test system: inverted rat jejunal sac
Experiment: In vitro permeation of rat jejunal sac by iron complexes (iron uptake into serosal space)
Settings: relative to ferric chloride as 1; Krebs Ringer buffer, 37° C., up to 1 hour
Description: Rats (male Sprague Dawley, 60 g) were killed and the jejunum removed, everted and cut into three segments (4 cm length). […] The contents of the sac were counted for ^59 Fe and measured spectrophotometrically.

Going from `O=C([O-])[C@H](O)[C@@H](O)[C@H](O)[C@H](O)CO.O=C([O-])[C@H](O)[C@@H](O)[C@H](O)[C@H](O)CO.[Fe+2]` [Fe^II gluconate] to `[Cl][Fe]([Cl])[Cl]` [FeCl3, ferric chloride], the “Relative Iron Uptake” value falls from 1.6 to 1.

Test system: not given
Experiment: not given
Settings: n-octanol/tris buffer, 100 µM, pH 7.4

In the case of “3-hydroxy-5-hydroxymethyl-1-methylpyrid-4-one”, the “Partition coefficient KOUT, free compound” value is reported as 0.03.

Test system: human erythrocytes
Experiment: not given
Settings: pH 7.4

First: CCCCNC(=O)Cn1cccc([O-])c1=O.CCCCNC(=O)Cn1cccc([O-])c1=O.CCCCNC(=O)Cn1cccc([O-])c1=O.[Fe+3] [Fe^III complex of 1-(N-butylcarbamoylmethyl)-3-hydroxypyrid-2-one]
Second: CC(C)NC(=O)Cn1cccc([O-])c1=O.CC(C)NC(=O)Cn1cccc([O-])c1=O.CC(C)NC(=O)Cn1cccc([O-])c1=O.[Fe+3] [Fe^III complex of 3-hydroxy-1-[N-(2'-methylethyl)-carbamoylmethyl]-pyrid-2-one]
The “Amount of complex entering erythrocytes” value of the first is higher: 105 n.mole for the first, 52 n.mole for the second.

Going from `COC(=O)Cn1cccc([O-])c1=O.COC(=O)Cn1cccc([O-])c1=O.COC(=O)Cn1cccc([O-])c1=O.[Fe+3]` [Fe^III complex of 3-hydroxy-1-methoxycarbonylmethylpyrid-2-one] to `CCOC(=O)Cn1cccc([O-])c1=O.CCOC(=O)Cn1cccc([O-])c1=O.CCOC(=O)Cn1cccc([O-])c1=O.[Fe+3]` [Fe^III complex of 1-ethoxycarbonylmethyl-3-hydroxypyrid-2-one], the “Amount of complex entering erythrocytes” value falls from 230 n.mole to 10 n.mole.

Going from `Cc1c([O-])c(=O)ccn1CCCO.Cc1c([O-])c(=O)ccn1CCCO.Cc1c([O-])c(=O)ccn1CCCO.[Fe+3]` [Fe^III complex of 3-hydroxy-1-(3'-hydroxypropyl)-2-methylpyrid-4-one] to `Cc1c([O-])c(=O)ccn1CCCCO.Cc1c([O-])c(=O)ccn1CCCCO.Cc1c([O-])c(=O)ccn1CCCCO.[Fe+3]` [Fe^III complex of 3-hydroxy-1-(4'-hydroxybutyl)-2-methylpyrid-4-one], the “Amount of complex entering erythrocytes” value rises from 30 n.mole to 40 n.mole.

Compared with `CCn1cc([O-])c(=O)cc1CO.CCn1cc([O-])c(=O)cc1CO.CCn1cc([O-])c(=O)cc1CO.[Fe+3]` [Fe^III complex of 1-ethyl-3-hydroxy-6-hydroxymethylpyrid-4-one], `COC(=O)CCn1ccc(=O)c([O-])c1C.COC(=O)CCn1ccc(=O)c([O-])c1C.COC(=O)CCn1ccc(=O)c([O-])c1C.[Fe+3]` [Fe^III complex of 3-hydroxy-1-(2'-methoxycarbonylethyl)-2-methylpyrid-4-one] is lower in “Amount of complex entering erythrocytes” value: 26 n.mole for the first, 25 n.mole for the second.

Going from `Cc1c([O-])c(=O)ccn1CCCCCO.Cc1c([O-])c(=O)ccn1CCCCCO.Cc1c([O-])c(=O)ccn1CCCCCO.[Fe+3]` [Fe^III complex of 3-hydroxy-1-(5'-hydroxypentyl)-2-methylpyrid-4-one] to `Cc1c([O-])c(=O)ccn1CCC(=O)O.Cc1c([O-])c(=O)ccn1CCC(=O)O.Cc1c([O-])c(=O)ccn1CCC(=O)O.[Fe+3]` [Fe^III complex of 1-(2'-carboxyethyl)-3-hydroxy-2-methylpyrid-4-one], the “Amount of complex entering erythrocytes” value falls from 44 n.mole to 19 n.mole.

In the case of `CC(=O)n1cccc([O-])c1=O.CC(=O)n1cccc([O-])c1=O.CC(=O)n1cccc([O-])c1=O.[Fe+3]` [Fe^III complex of 1-acetyl-3-hydroxypyrid-2-one], the “Amount of complex entering erythrocytes” value is reported as 240 n.mole.

For “Fe^III complex of 1-carboxymethyl-3-hydroxy-2-methylpyrid-4-one”, the “Amount of complex entering erythrocytes” value was < 5 n.mole.
With `O=C(O)Cn1cccc([O-])c1=O.O=C(O)Cn1cccc([O-])c1=O.O=C(O)Cn1cccc([O-])c1=O.[Fe+3]` [Fe^III complex of 1-carboxymethyl-3-hydroxypyrid-2-one] the “Amount of complex entering erythrocytes” value was < 5 n.mole.
With `Cc1c([O-])c(=O)ccn1CCN.Cc1c([O-])c(=O)ccn1CCN.Cc1c([O-])c(=O)ccn1CCN.[Fe+3]` [Fe^III complex of 1-(2'-aminoethyl)-3-hydroxy-2-methylpyrid-4-one] the “Amount of complex entering erythrocytes” value was < 5 n.mole.
In the case of `Cn1cc([O-])c(=O)cc1CO.Cn1cc([O-])c(=O)cc1CO.Cn1cc([O-])c(=O)cc1CO.[Fe+3]` [Fe^III complex of 3-hydroxy-6-hydroxymethyl-1-methylpyrid-4-one], the “Amount of complex entering erythrocytes” value is reported as < 5 n.mole.
With `Cc1c([O-])c(=O)ccn1CCO.Cc1c([O-])c(=O)ccn1CCO.Cc1c([O-])c(=O)ccn1CCO.[Fe+3]` [Fe^III complex of 3-hydroxy-1-(2'-hydroxyethyl)-2-methylpyrid-4-one] the “Amount of complex entering erythrocytes” value was < 5 n.mole.

Test system: not listed separately
Experiment: physchem
Settings: n-octanol/tris buffer, pH 7.4
Method: (§1) The partition coefficient Kpart, being the ratio (concentration of compound in n-octanol)/(concentration of compound in aqueous phase) on partition between n-octanol and aqueous tris hydrochloride (20 mM, pH 7.4; tris represents 2-amino-2-hydroxymethylpropane 1,3-diol), is measured at 20° C. for the 3:1 iron(III) complexes of each of the compounds listed in Table 1 and also for the iron-free compound (at 10^-4 M) by spectrophotometry. The solutions of the complexes are either produced by dissolving the pre-formed complex in the aqueous tris hydrochloride or are prepared in situ in the buffer by the admixture of a 3:1 molar ratio of the pyridone and ferric chloride, the pH thereafter being readjusted to 7.4 if necessary (the same product will be obtained in the buffer solution irrespective of whether the pyridone used is in a salt form or not). Acid washed glassware is used throughout and, following mixing of 5 ml of the 10^-4 M aqueous solution with 5 ml of n-octanol for 1 minute, the aqueous n-octanol mixture is centrifuged at 1,000 g for 30 seconds. The two resulting phases are separated for a concentration determination by spectrophotometry on each. For the free hydroxypyridones, the range 220-340 nm is used for concentration determinations whilst for the iron complexes the range 340-640 nm is used.

First: COC(=O)Cn1cccc(O)c1=O [3-hydroxy-1-methoxycarbonylmethylpyrid-2-one]
Second: CCOC(=O)Cn1cccc(O)c1=O [1-ethoxycarbonylmethyl-3-hydroxypyrid-2-one]
The logD at 100 µM of the first is lower: -0.699 for the first, -0.301 for the second.

First: CC(=O)n1cccc(O)c1=O [1-acetyl-3-hydroxypyrid-2-one]
Second: Cc1c(O)c(=O)ccn1CC(=O)O [1-carboxymethyl-3-hydroxy-2-methylpyrid-4-one]
The logD at 100 µM of the first is higher: -0.26 for the first, < -2.7 for the second.

First: Cc1c(O)c(=O)ccn1CCN [1-(2'-aminoethyl)-3-hydroxy-2-methylpyrid-4-one]
Second: Cc1c(O)c(=O)ccn1CCC(=O)O [1-(2'-carboxyethyl)-3-hydroxy-2-methylpyrid-4-one]
The logD at 100 µM of the first is lower: < -2.7 for the first, -0.347 for the second.

Going from `CC(=O)OCCCCCn1ccc(=O)c(O)c1C` [1-(5'-acetoxypentyl)-3-hydroxy-2-methylpyrid-4-one] to `Cc1c(O)c(=O)ccn1CCCCCO` [3-hydroxy-1-(5'-hydroxypentyl)-2-methylpyrid-4-one], the logD at 100 µM falls from -0.347 to -0.553.

Compound `CCn1cc(O)c(=O)cc1CO` [1-ethyl-3-hydroxy-6-hydroxymethylpyrid-4-one] has a logD at 100 µM of -1.22.

Test system: not listed separately
Experiment: Partition coefficient between n-octanol and aqueous tris hydrochloride (20 mM, pH 7.4) at 20° C.
Settings: free compound, 10^-4 M; n-octanol/tris hydrochloride 20 mM pH 7.4, 20° C.
Method: as §1

Going from `CNC(=O)Cn1cccc(O)c1=O` [3-hydroxy-1-(N-methylcarbamoylmethyl)pyrid-2-one] to `CCNC(=O)Cn1cccc(O)c1=O` [1-(N-ethylcarbamoylmethyl)-3-hydroxypyrid-2-one], the “Partition coefficient KOUT, free compound” value rises from 0.06 to 0.12.

First: CCCCNC(=O)Cn1cccc(O)c1=O [1-(N-butylcarbamoylmethyl)-3-hydroxypyrid-2-one]
Second: CCCNC(=O)Cn1cccc(O)c1=O [3-hydroxy-1-(N-propylcarbamoylmethyl)-pyrid-2-one]
The “Partition coefficient KOUT, free compound” value of the first is higher: 1.89 for the first, 0.35 for the second.

In the case of `CC(C)NC(=O)Cn1cccc(O)c1=O` [3-hydroxy-1-[N-(2'-methylethyl)-carbamoylmethyl]-pyrid-2-one], the “Partition coefficient KOUT, free compound” value is reported as 0.34.

Same assay, conditions: n-octanol partition, in words

For “Fe^III complex of 1-carboxymethyl-3-hydroxy-2-methylpyrid-4-one”, the “Kpart values (in words)” value was “low Kpart values”.
In the case of `Cc1c([O-])c(=O)ccn1CCN.Cc1c([O-])c(=O)ccn1CCN.Cc1c([O-])c(=O)ccn1CCN.[Fe+3]` [Fe^III complex of 1-(2'-aminoethyl)-3-hydroxy-2-methylpyrid-4-one], the “Kpart values (in words)” value is reported as “low Kpart values”.

Same assay, conditions: n-octanol/tris buffer, pH 7.4

First: Cc1c(O)c(=O)ccn1CCCCO [3-hydroxy-1-(4'-hydroxybutyl)-2-methylpyrid-4-one]
Second: Cc1c(O)c(=O)ccn1CCO [3-hydroxy-1-(2'-hydroxyethyl)-2-methylpyrid-4-one]
The logD at 100 µM of the first is higher: -0.854 for the first, < -2.7 for the second.
